Patent US8697877B2, “Oxyindole derivatives with motilin receptor agonistic activity” (RaQualia Pharma Inc., priority 2009, dated 2014)
Read-outs that look alike come from different tables or passages of the source.

Target: T1, human motilin receptor (GPR38) (Homo sapiens, UniProt O43193)
T1 construct: expressed in transfected cells; host or cells: CHO-K1
Test: GPR38 (Motilin Receptor) Functional Assay, NFAT-beta-lactamase reporter in CHO-K1 cells
Assay type: cell-based
Procedure, shortened: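 CHO-K1 cells stably carrying NFAT-beta-lactamase reporter and human motilin receptor, 8000 cells/well, compound 4.5 h at 37° C. CCF4-AM loaded 2 h at room temperature; fluorescence read at ex 400 nm, em 465/540 nm. Agonist EC50 from sigmoidal dose-response curve.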

[1] = ED50 (nM), Table 15, functional activity toward GPR38 (motilin receptor), (S) versus (R) amino acid linker

T1 sequence (O43193 whole entry): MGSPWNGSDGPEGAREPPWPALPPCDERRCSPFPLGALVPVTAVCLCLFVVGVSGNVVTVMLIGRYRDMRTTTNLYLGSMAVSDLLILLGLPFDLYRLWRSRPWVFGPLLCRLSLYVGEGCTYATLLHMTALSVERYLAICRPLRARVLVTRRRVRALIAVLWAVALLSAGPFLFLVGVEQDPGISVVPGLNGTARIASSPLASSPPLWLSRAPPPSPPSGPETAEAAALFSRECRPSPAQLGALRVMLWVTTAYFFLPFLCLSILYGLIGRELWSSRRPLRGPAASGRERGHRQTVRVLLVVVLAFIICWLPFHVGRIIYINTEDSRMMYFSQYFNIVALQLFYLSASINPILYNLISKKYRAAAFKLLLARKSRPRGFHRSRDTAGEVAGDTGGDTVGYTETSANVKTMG

Structure (SMILES)	EC50	EC50 [1]
CC1(C)C(=O)N(C2CCN(C(=O)[C@H](Cc3ccccc3Cl)NC(=O)C3CCNCC3)CC2)c2ccccc21 [Example 79, (S)-N-(3-(2-chlorophenyl)-1-(4-(3,3-dimethyl-2-oxo-indolin-1-yl)piperidin-1-yl)-1-oxopropan-2-yl) piperidine-4-carboxamide]	≤ 10 nM	
CC1(C)C(=O)N(C2CCN(C(=O)[C@H](Cc3ccccc3)NC(=O)[C@@H]3CCCNC3)CC2)c2ccccc21 [Example 82, (R)-N-((S)-1-(4-(3,3-dimethyl-2-oxoindolin-1-yl)piperidin-1-yl)-1-oxo-3-phenylpropan-2-yl) piperidine-3-carboxamide]	≤ 10 nM	
CC1(C)C(=O)N(C2CCN(C(=O)[C@H](Cc3ccccc3F)NC(=O)[C@@H]3CCCNC3)CC2)c2ccccc21 [Example 83, (R)-N-((S)-1-(4-(3,3-dimethyl-2-oxoindolin-1-yl)piperidin-1-yl)-3-(2-fluorophenyl)-1-oxo-propan-2-yl)piperidine-3-carboxamide]	≤ 10 nM	
CC1(C)C(=O)N(C2CCN(C(=O)[C@H](Cc3ccccc3C(F)(F)F)NC(=O)[C@@H]3CCCNC3)CC2)c2ccccc21 [Example 85, (R)-N-((S)-1-(4-(3,3-dimethyl-2-oxoindolin-1-yl)piperidin-1-yl)-1-oxo-3-(2-(trifluoromethyl)phenyl)propan-2-yl) piperidine-3-carboxamide]	≤ 10 nM	
CC1(C)C(=O)N(C2CCN(C(=O)[C@H](Cc3ccccc3Cl)NC(=O)[C@@H]3CCCNC3)CC2)c2ccccc21 [Example 86, (R)-N-((S)-3-(2-chloro-phenyl)-1-(4-(3,3-dimethyl-2-oxoindolin-1-yl)piperidin-1-yl)-1-oxo-propan-2-yl)piperidine-3-carboxamide]	≤ 10 nM	
CC1(C)C(=O)N(C2CCN(C(=O)[C@H](Cc3ccc(Cl)cc3)NC(=O)[C@@H]3CCCNC3)CC2)c2ccccc21 [Example 87, (R)-N-((S)-3-(4-chloro-phenyl)-1-(4-(3,3-dimethyl-2-oxoindolin-1-yl)piperidin-1-yl)-1-oxopropan-2-yl)piperidine-3-carboxamide]	≤ 10 nM	
CN[C@H]1CCN(C(=O)N[C@@H](Cc2ccccc2C(F)(F)F)C(=O)N2CCC(N3C(=O)C(C)(C)c4ccccc43)CC2)C1 [Example 92, (S)-N-((S)-1-(4-(3,3-dimethyl-2-oxoindolin-1-yl)piperidin-1-yl)-1-oxo-3-(2-(trifluoromethyl)phenyl)propan-2-yl)-3-(methylamino)pyrrolidine-1-carboxamide]	≤ 10 nM	
CN[C@H]1CCN(C(=O)N[C@@H](Cc2ccccc2Cl)C(=O)N2CCC(N3C(=O)C(C)(C)c4ccccc43)CC2)C1 [Example 93, (S)-N-((S)-3-(2-chloro-phenyl)-1-(4-(3,3-dimethyl-2-oxoindolin-1-yl)piperidin-1-yl)-1-oxopropan-2-yl)-3-(methylamino)pyrrolidine-1-carboxamide]	≤ 10 nM	
CN[C@H]1CCN(C(=O)N[C@@H](Cc2ccc(Cl)cc2)C(=O)N2CCC(N3C(=O)C(C)(C)c4ccccc43)CC2)C1 [Example 94, (S)-N-((S)-3-(4-chloro-phenyl)-1-(4-(3,3-dimethyl-2-oxoindolin-1-yl)piperidin-1-yl)-1-oxopropan-2-yl)-3-(methylamino)pyrrolidine-1-carboxamide]	≤ 10 nM	
CC1(C)C(=O)N(C2CCN(C(=O)[C@@H](CCc3ccccc3)NC(=O)[C@@H]3CCCNC3)CC2)c2ccccc21 [Example 98]		6210 nM
CN[C@H]1CCN(C(=O)N[C@H](CCc2ccccc2)C(=O)N2CCC(N3C(=O)C(C)(C)c4ccccc43)CC2)C1 [Example 99, (S)—N—((R)-1-(4-(3,3-dimethyl-2-oxoindolin-1-yl)piperidin-1-yl)-1-oxo-4-phenylbutan-2-yl)-3-(methylamino)pyrrolidine-1-carboxamide]		488 nM
